Data from patent publication US12616759B2, “Uses of labeled HSP90 inhibitors” (Sloan-Kettering Institute for Cancer Research, priority 2011, dated 2026).

Tests used:
HSP90 [1] = assay: fluorescence polarization HSP90 binding assay using SKBr3 cancer cell lysate; settings: fluorescence polarization
HSP90 [2] = assay: concomitant HSP90-streptavidin binding in live K562 cells; assay type: cell-based; settings: for HSP90-streptavidin binding with K562 cells: live cells
Excerpt: Having shown that some of the molecules bind concomitantly to HSP90 and streptavidin, we next investigated whether this can similarly be accomplished in live cells.

HSP90 [3] = assay: concomitant binding to HSP90 and streptavidin, K562 lysate; settings: 100 μM; for HSP90-streptavidin binding with K562 lysate: streptavidin beads, overnight; for band at approximately 90 kDa, concomitant binding to HSP90 and streptavidin: K562 lysate, SDS-PAGE
Procedure: Having shown that each of the prepared biotinylated molecules retain good affinity to HSP90 we next wanted to determine whether the chain length was sufficient to maintain concomitant binding to HSP90 and streptavidin. […] Following sufficient washing to remove any unbound material, the remaining bead pellet was analyzed by SDS-PAGE. The gel was washed and stained with coomasie blue for 1 h.

Compound | EC50 (HSP90 [1]) | HSP90-streptavidin binding with K562 cells (HSP90 [2]; 100 μM, 4 h) | HSP90-streptavidin binding with K562 lysate (HSP90 [3]) | band at approximately 90 kDa, concomitant binding to HSP90 and streptavidin (HSP90 [3]) | binding in live K562 cells (HSP90 [2]; 100 μM, 4 h) | band at approximately 90 kDa (HSP90 [2]; 0.5 μM) | binding in live K562 cells (HSP90 [2]; 10 μM) | band at approximately 90 kDa (HSP90 [2]; lowest concentration 1 μM)
CC(C)N(CCCn1c(Sc2cc3c(cc2I)OCO3)nc2c(N)ncnc21)C(=O)CCCC[C@@H]1SC[C@@H]2NC(=O)N[C@@H]21 [PU-H71-biotin2] | 154 nM | No | No | did not show a band at 90 kDa | – | – | – | –
Nc1ncnc2c1nc(Sc1cc3c(cc1I)OCO3)n2CCCNC(=O)CCCC[C@@H]1SC[C@@H]2NC(=O)N[C@@H]21 [PU-H71-biotin3] | 44.3 nM | No | No | did not show a band at 90 kDa | – | – | – | –
Nc1ncnc2c1nc(Sc1cc3c(cc1I)OCO3)n2CCCNC(=O)CCCCCNC(=O)CCCC[C@@H]1SC[C@@H]2NC(=O)N[C@@H]21 [PU-H71-biotin4] | 34.8 nM | No | No | did not show a band at 90 kDa | – | – | – | –
Nc1ncnc2c1nc(Sc1cc3c(cc1I)OCO3)n2CCCNC(=O)CCCCCNC(=O)CCCCCNC(=O)CCCC[C@@H]1SC[C@@H]2NC(=O)N[C@@H]21 [PU-H71-biotin5] | 31.4 nM | Yes | Yes | show a band at approximately 90 kDa | are able to permeate the cell membrane | – | – | –
Nc1ncnc2c1nc(Sc1cc3c(cc1I)OCO3)n2CCCNC(=O)CCOCCOCCOCCOCCNC(=O)CCCC[C@@H]1SC[C@@H]2NC(=O)N[C@@H]21 [PU-H71-biotin6] | 66.2 nM | Yes | Yes | show a band at approximately 90 kDa | are able to permeate the cell membrane | still shows a faint band | maintain good binding | a faint band is still present
CC(C)N(CCCn1c(Sc2cc3c(cc2I)OCO3)nc2c(N)ncnc21)C(=O)CCCCCNC(=O)CCCC[C@@H]1SC[C@@H]2NC(=O)N[C@@H]21 [PU-H71-biotin7] | 72.8 nM | No | No | did not show a band at 90 kDa | – | – | – | –
CC(C)N(CCCn1c(Sc2cc3c(cc2I)OCO3)nc2c(N)ncnc21)C(=O)CCCCCNC(=O)CCCCCNC(=O)CCCC[C@@H]1SC[C@@H]2NC(=O)N[C@@H]21 [PU-H71-biotin8] | 76.9 nM | Yes | Yes | show a band at approximately 90 kDa | are able to permeate the cell membrane | – | – | –
CC(C)N(CCCn1c(Sc2cc3c(cc2I)OCO3)nc2c(N)ncnc21)C(=O)CCOCCOCCOCCOCCNC(=O)CCCC[C@@H]1SC[C@@H]2NC(=O)N[C@@H]21 [PU-H71-biotin9] | 110 nM | Yes | Yes | show a band at approximately 90 kDa | are able to permeate the cell membrane | – | maintain good binding | a faint band is still present
Nc1ncnc2c1nc(Sc1cc3c(cc1I)OCO3)n2CCCNCCOCCOCCOCCNC(=O)CCCC[C@@H]1SC[C@@H]2NC(=O)N[C@@H]21 [PU-H71-biotin] | 58.9 nM | No | Yes | show a band at approximately 90 kDa | failed to maintain binding in live cells | – | – | –
